Drawing on PMC8652005 (2021), this text covers Kd for 1 compound.

Experiment [1] relates to add_FL (RNA, riboswitch) GGGAAGAAACGCUUCAUAUAAUCCUAAUGAUAUGGUUUGGGAGUUUCUACCAAGAGCCUUAAACUCUUGAUUAUGAAGUCUGUCGCUUUAUCCCAAAUUUUAUAAAGAGAAGACUCAUGAAU
The experiment is described as follows: ITC. As to conditions: 100 mM KCl, 10 mM MgCl2; 10 mM HEPES, pH 7.5, room temperature.

Experiment [2] relates to add_P1 (RNA, riboswitch) GGGAAGAUAUAAUCCUAAUGAUAUGGUUUGGGAGUUUCUACCAAGAGCCUUAAACUCUUGAUUAUCUUCUCUGUCGCUUUAUCCCAAAUUUUAUAAAGAGAAGACUCAUGAAU
The experiment is described as follows: ITC. As to conditions: 100 mM KCl, 10 mM MgCl2; 10 mM HEPES, pH 7.5, room temperature.

Take `Nc1ncnc2[nH]cnc12`: the Kd in experiment [1] is on record as 90.0 ± 0.96 nM; in experiment [2], 67.6 ± 0.53 nM.
